The test system of experiment [1] is S. aureus ATCC 29213. As to the kind of experiment: MIC assay. It is filed as cell-based, Staphylococcus aureus. The protocol:
1. Staphylococcus aureus—the principal staphylococcal test micro-organism used in these studies was Staphylococcus aureus ATCC 29213. This strain is the one recommended for QC/QA purposes in Minimum Inhibitory Concentration (MIC) assays by the US Clinical and Laboratory Standards Institute (formerly the NCCLS), an FDA-recognised body. […] The staphylococci and enterococci were cultured and maintained on Mueller-Hinton Medium (agar and broth) at pH 7.2; they were incubated aerobically at 37° C. for 24 hours. This is a standard international method for quantitatively assessing the antimicrobial activity of a compound in a liquid medium. The method used a 96-well microtitre plate, capable of holding about 200 μl of liquid per well. […] The culture media were as described above for the relevant test organisms. The wells were inoculated with a liquid suspension of freshly grown micro-organism and incubated under the conditions described above. After incubation, the microtitre plate was examined visually (with the aid of a light box) for cell pellets in and/or opaque wells, which would indicate microbial growth. The MIC value was recorded as the lowest concentration of test compound required to inhibit microbial growth, ie, the lowest concentration for which the liquid in the well remained clear. The assays were conducted in duplicate and included both negative (culture medium only) and positive (culture medium, diluting solvent and inoculum) controls.

Experiment [2] concerns S. aureus ATCC 29213. As to the kind of experiment: Disc diffusion assay (DDA). It is filed as cell-based, Staphylococcus aureus. The source says:
1. Staphylococcus aureus—the principal staphylococcal test micro-organism used in these studies was Staphylococcus aureus ATCC 29213. This strain is the one recommended for QC/QA purposes in Minimum Inhibitory Concentration (MIC) assays by the US Clinical and Laboratory Standards Institute (formerly the NCCLS), an FDA-recognised body. S. aureus ATCC 29213 is susceptible to beta-lactam antibiotics such as methicillin and to many other antibiotics in clinical use worldwide today. The staphylococci and enterococci were cultured and maintained on Mueller-Hinton Medium (agar and broth) at pH 7.2; they were incubated aerobically at 37° C. for 24 hours. A sterile paper disc was impregnated with a sample of the test compound and a minimum of 30 minutes allowed for the solvents to evaporate as far as possible. The disc was then placed on an agar plate onto which the test micro-organism had been inoculated. The plate was then incubated under the conditions described above, following which it was examined visually for signs of bacterial growth. If the test compound had antimicrobial activity, a circular zone of no growth would be obtained around the disc. The diameter of this zone of “inhibition” was measured using a ProtoCOL™ automated zone sizer (Synbiosis, Cambridge, UK). In general, a greater diameter and/or area of the zone of inhibition indicates a greater antimicrobial activity in the relevant test compound, although other factors such as test compound mobility through the agar gel may also influence the result. […] The exceptions were the thymoquinone assays, in which only 50 μg of the benzoquinone was used.
(In general: In agar diffusion tests the substance spreads into inoculated agar from a disc or well.)

Experiment [3] has as its system S. aureus ATCC 29213. As to the kind of experiment: Synergy disc diffusion assay (SDDA). It is filed as cell-based, Staphylococcus aureus. To be noted: for SDDA area increase / SDDA increase: quinone + BP; for SDDA area increase: over larger single-compound zone; for SDDA increase: over larger single-compound zone diameter; for SDDA with BP: quinone combined with BP on one disc, 200 μg of each (thymoquinone 50 μg). The source says: 1. Staphylococcus aureus—the principal staphylococcal test micro-organism used in these studies was Staphylococcus aureus ATCC 29213. This strain is the one recommended for QC/QA purposes in Minimum Inhibitory Concentration (MIC) assays by the US Clinical and Laboratory Standards Institute (formerly the NCCLS), an FDA-recognised body. S. aureus ATCC 29213 is susceptible to beta-lactam antibiotics such as methicillin and to many other antibiotics in clinical use worldwide today. The staphylococci and enterococci were cultured and maintained on Mueller-Hinton Medium (agar and broth) at pH 7.2; they were incubated aerobically at 37° C. for 24 hours. This is a variation on the DDA method, in which two compounds are tested together for their combined antimicrobial activity. It provides a qualitative indication as to whether the compounds are likely to interact synergistically. Two test compounds A and B were placed on a single paper disc and the above described DDA procedure repeated. An increase in diameter of the zone of inhibition, compared to the greater of the zone diameters for the two compounds individually, was taken to indicate potential antimicrobial synergy. […] The larger the increase in zone size, the greater the likelihood of a synergistic interaction between the two test compounds. Each of the quinones was then subjected, in combination with BP, to the SDDA assay described above. In each case, increases in zone diameter (mm) and area (%) were measured with respect to those observed for the compound showing the larger zone diameters during the previous disc diffusion assays on the individual compounds. […] The exceptions were the thymoquinone assays, in which only 50 μg of the benzoquinone was used.

The subject of another experiment is P. acnes NCTC 737. As to the kind of experiment: MBC assay. The format is cell-based, Propionibacterium acnes. The protocol:
2. Propionibacterium spp.—the principal propionibacterial strain used in these studies was Propionibacterium acnes NCTC 737. This is the type strain of the genus; it is fully susceptible to antibiotics.
The Propionibacterium spp organisms were cultured and maintained on Wilkins-Chalgren Anaerobe Medium (agar and broth) at pH 6.0; cultures were incubated anaerobically at 37° C. for 72 hours.
This assay, normally carried out after an MIC assay, determines the minimum concentration of a compound that is lethal to the micro-organism being tested.
These samples were then individually sub-cultured on non-selective agar medium, under the incubation conditions described above. Following incubation they were examined visually for bacterial growth.

In experiment [4] the test system is S. aureus ATCC 29213. As to the kind of experiment: Supplemented disc diffusion assay (DDA + salt, lipid or blood). It is filed as cell-based, Staphylococcus aureus. To be noted: 200 μg per disc (thymoquinone 50 μg); for DDA + blood: agar supplemented with blood; for DDA + lipid: agar supplemented with lipid; for DDA + salt: agar supplemented with salt. The protocol:
The staphylococci and enterococci were cultured and maintained on Mueller-Hinton Medium (agar and broth) at pH 7.2; they were incubated aerobically at 37° C. for 24 hours. A sterile paper disc was impregnated with a sample of the test compound and a minimum of 30 minutes allowed for the solvents to evaporate as far as possible. The disc was then placed on an agar plate onto which the test micro-organism had been inoculated. The plate was then incubated under the conditions described above, following which it was examined visually for signs of bacterial growth. If the test compound had antimicrobial activity, a circular zone of no growth would be obtained around the disc. The diameter of this zone of “inhibition” was measured using a ProtoCOL™ automated zone sizer (Synbiosis, Cambridge, UK). In general, a greater diameter and/or area of the zone of inhibition indicates a greater antimicrobial activity in the relevant test compound, although other factors such as test compound mobility through the agar gel may also influence the result. Either the DDA or the SDDA tests may be carried out using an agar gel supplemented with blood, lipid and/or salt to simulate some of the major components present in human skin and to assess whether these substances might reduce the antimicrobial activity observed for the test compounds. Performance under these conditions can provide a more reliable indication of activity on topical application. […] MIC, MBC and DDA assays, as described above, were carried out using the test compound benzoyl peroxide (BP) and a range of different benzoquinones and hydroquinones. Supplemented DDA assays, in the presence of salt, lipid and blood, were also conducted. […] The exceptions were the thymoquinone assays, in which only 50 μg of the benzoquinone was used.

[5] abbreviates: S. aureus ATCC 29213, Table 1 (Example 1).
Setting [6] is: Table 1, zone diameter, 200 μg per disc (thymoquinone 50 μg).
The mark [7] stands for this setting: P. acnes NCTC 737, Table 7 (Example 6).
The mark [8] stands for this setting: S. aureus ATCC 29213, Table 5 (Example 5).
Setting [9] is: Table 6 (Example 5), zone diameter, 200 μg per disc.
[10] abbreviates: Cutibacterium acnes, NCTC737, P. acnes NCTC 737 (resistance None), Table 9 (Example 8).
Setting [11] is: Cutibacterium acnes, NCTC737, P. acnes NCTC 737, Table 7 (Example 6).
Setting [12] is: Staphylococcus aureus, ATCC29213, S. aureus ATCC 29213, Table 1 (Example 1), read-out: MIC.
The mark [13] stands for this setting: Cutibacterium acnes, NCTC737, P. acnes NCTC 737, Table 7 (Example 6), read-out: MBC.

Each structure is given as a SMILES string. Values after ≈ are worked out from the molar mass of the structure shown. Where two headings read alike, the source gives them in different places.

The term MIC denotes the lowest concentration that inhibits growth of the organism. For orientation: MBC means the lowest tested concentration that kills the bacteria rather than only halting them. As to `Cc1c(O)ccc(O)c1C` [2,3-dimethyl-p-hydroquinone], the MIC in the experiment with S. aureus ATCC 29213 [1] (setting [5]) was found to be 7.8 µg/mL (≈ 56.5 µM). The molecule further displayed a DDA with S. aureus ATCC 29213 [2] (setting [6]) of 33.41 mm. Moreover, in the experiment with S. aureus ATCC 29213 [3], the SDDA area increase was 52.39%, the SDDA increase is 7.83 mm and the “SDDA with BP” value was found to be 41.25 mm. In addition, the minimal bactericidal concentration (MBC) against P. acnes NCTC 737 (setting [7]) is 15.6 µg/mL (≈ 113 µM). Moreover, in the experiment with S. aureus ATCC 29213 [4], the “DDA + blood” value is reported as 14.32 mm, the “DDA + lipid” value is given as 35.80 mm and the “DDA + salt” value is recorded as 34.24 mm.

On to `CCc1cc(O)ccc1O` [2-ethyl-p-hydroquinone], for which, in the experiment on S. aureus ATCC 29213 [1] (setting [5]), the MIC was 7.8 µg/mL (≈ 56.5 µM). In the experiment with S. aureus ATCC 29213 [2] (setting [6]), this molecule had a DDA of 21.06 mm. Also, in the experiment with S. aureus ATCC 29213 [3], the SDDA area increase came to 105.49%, the SDDA increase is 9.13 mm and the “SDDA with BP” value worked out at 30.19 mm. Also, the MBC with P. acnes NCTC 737 (setting [7]) came out at 31.25 µg/mL (≈ 226 µM). For the same molecule, in the experiment on S. aureus ATCC 29213 [4], the “DDA + blood” value is 17.74 mm, the “DDA + lipid” value was determined as 23.04 mm and the “DDA + salt” value was found to be 24.59 mm.

Consider `CC(C)(C)c1cc(O)ccc1O` [TBHQ, t-butyl hydroquinone], for which the MIC against S. aureus ATCC 29213 [1] (setting [8]) stood at 7.8 µg/mL (≈ 46.9 µM). Further, in the experiment on S. aureus ATCC 29213 [1] (Staphylococcus aureus, ATCC29213), the lowest concentration to inhibit growth (MIC) was 7.8 µg/mL (≈ 46.9 µM). Also, the DDA with S. aureus ATCC 29213 [2] (setting [6]) stood at 41.77 mm. Moreover, the DDA in the experiment with S. aureus ATCC 29213 [2] (setting [9]) turned out to be 46.79 mm. In the experiment with S. aureus ATCC 29213 [3], the SDDA area increase was determined as 169.30%, the SDDA increase was found to be 26.77 mm and the “SDDA with BP” value is 68.54 mm. Moreover, in the experiment with P. acnes NCTC 737 (setting [10]), the minimal bactericidal concentration (MBC) worked out at 15.6 µg/mL (≈ 93.9 µM). The molecule further had an MBC against P. acnes NCTC 737 (setting [11]) of 15.6 µg/mL (≈ 93.9 µM). Also, in the experiment on S. aureus ATCC 29213 [4], the “DDA + blood” value is 10.89 mm, the “DDA + lipid” value is reported as 31.44 mm and the “DDA + salt” value amounted to 54.16 mm.

As for `O=C(OOC(=O)c1ccccc1)c1ccccc1` [benzoyl peroxide], the minimal inhibitory concentration (MIC) against S. aureus ATCC 29213 [1] (setting [8]) and in the experiment with S. aureus ATCC 29213 [1] (setting [12]) was 250 µg/mL (≈ 1030 µM) in each case. Further, the DDA with S. aureus ATCC 29213 [2] (setting [6]) came to 11.03 mm; with S. aureus ATCC 29213 [2] (setting [9]) it was 9.61 mm. Also, the MBC was determined as 31.2 µg/mL (≈ 129 µM) in the experiment with P. acnes NCTC 737 (setting [10]) and 62.5 µg/mL (≈ 258 µM) in the experiment with P. acnes NCTC 737 (setting [11]).

Consider `O=C1C=CC(=O)C=C1` [p-benzoquinone], for which the DDA in the experiment with S. aureus ATCC 29213 [2] (setting [6]) is recorded as 29.34 mm. Besides, in the experiment on S. aureus ATCC 29213 [3], the SDDA area increase was 37.25%, the SDDA increase came to 5.03 mm and the “SDDA with BP” value was 34.38 mm. Also, the MBC in the experiment on P. acnes NCTC 737 (setting [13]) turned out to be 62.5 µg/mL (≈ 578 µM). Also, in the experiment on S. aureus ATCC 29213 [4], the “DDA + blood” value worked out at 20.31 mm, the “DDA + lipid” value is reported as 29.05 mm and the “DDA + salt” value is 27.49 mm.

`Oc1ccc(O)cc1` [p-hydroquinone]: the MIC against S. aureus ATCC 29213 [1] (setting [5]) was 62.5 µg/mL (≈ 568 µM). Moreover, in the experiment with S. aureus ATCC 29213 [2] (setting [6]), the DDA is on record as 18.94 mm. In the experiment on S. aureus ATCC 29213 [3], the SDDA area increase worked out at 210.15%, the SDDA increase amounted to 14.42 mm and the “SDDA with BP” value came out at 33.36 mm. This molecule also returned an MBC against P. acnes NCTC 737 (setting [7]) greater than 250 µg/mL. In addition, in the experiment on S. aureus ATCC 29213 [4], the “DDA + blood” value is 14.01 mm, the “DDA + lipid” value is 15.56 mm and the “DDA + salt” value is listed as 16.61 mm.

`CC1=CC(=O)C(C(C)C)=CC1=O` [thymoquinone, 2-iso-propyl-5-methyl-p-benzoquinone]: the MIC with S. aureus ATCC 29213 [1] (setting [12]) came out at 7.8 µg/mL (≈ 47.5 µM). The same molecule showed a DDA in the experiment with S. aureus ATCC 29213 [2] (setting [6]) of 15.64 mm. Further, in the experiment with S. aureus ATCC 29213 [3], the SDDA area increase is on record as 120.91%, the SDDA increase came to 7.60 mm and the “SDDA with BP” value stood at 23.24 mm. Also, the minimum bactericidal concentration (MBC) with P. acnes NCTC 737 (setting [13]) is 31.2 µg/mL (≈ 190 µM). Moreover, in the experiment with S. aureus ATCC 29213 [4], the “DDA + blood” value amounted to 0.0 mm, the “DDA + lipid” value came to 18.99 mm and the “DDA + salt” value is 20.54 mm.

Values taken from patent publication US20080262097A1, “Formulations” (priority 2005, published 2008).
